Values quoted from earlier work in the CATMoS acute toxicity set (Mansouri et al. 2021).
“And” between values parts separate entries of the source, which are not always exact repeats. Equal values may be shown once.

Assay: rat acute oral toxicity
Settings: in vivo

Structure (SMILES) | LD50
CCOC(=O)CC(CC(=O)OCC)(OC(C)=O)C(=O)OCC | 7000 mg/kg
O=S1(=O)CC(Cl)(Cl)C(Cl)(Cl)C1 | 87 mg/kg
CCN(CC(F)(F)F)N=O | 960 mg/kg
CCCCCCCCSC(=O)Oc1cc(Cl)nnc1-c1ccccc1 | 1970 mg/kg
Cc1ccc(C(=O)c2ccc(CC(=O)NCCn3cnc4c3c(=O)n(C)c(=O)n4C)n2C)cc1 | 1200 mg/kg
COP(=O)(SC(C)C)SC(C)C | 119 mg/kg
CCCCCCOCCO | 830 mg/kg
CCCCC1C(=O)N(c2ccccc2)N(c2ccc(O)cc2)C1=O (stereo unspecified) | 329 mg/kg
OCCOCc1ccccc1 | 1190 mg/kg
CCOP(=O)(OCC)Oc1ccc2ccc(=O)oc2c1 | 29 mg/kg
Nc1cc(Cl)ccc1O | 690 mg/kg
CCCCCCCCOC(CBr)c1ccc(C2CCCC2)cc1 (stereo unspecified) | 250 mg/kg
COc1ccc(OC)c2[nH]c(C(F)(F)F)nc12 | 60 mg/kg
CN1CCN(CCCCCCCCNC(=O)Oc2ccc3c(c2)C2(C)CCN(C)C2N3C)CC1 (stereo unspecified) | 27.7 mg/kg
C=C(Cl)C(Cl)CCl (stereo unspecified) | 341 mg/kg
O[C@@H]1CO[C@H]2[C@@H]1OC[C@@H]2O | 24200 mg/kg
COc1ccc(Cc2nccc3cc(OC)c(OC)cc23)cc1OC | 68.8 mg/kg
Nc1ncc(C=Cc2ccc([N+](=O)[O-])o2)nn1 | 250 mg/kg
OCCNCCc1ccccc1 | 1870 mg/kg
O=[N+]([O-])OC1COC2C(O)COC12 (stereo unspecified) | 2300 mg/kg
C=CC[N+]1(CCC(C)CCCC(C)C)CCCCC1 (stereo unspecified) | 360 mg/kg
C=C(C)C(=O)OCCOCCOCCOC(=O)C(=C)C | 10800 mg/kg
Nc1cccc(N(CCO)CCO)c1 | 246 mg/kg

Structure (SMILES) | LD50
COC(=O)c1cccc(C(=O)OC)c1 | 4390 mg/kg
ClCc1cccc(Oc2ccccc2)c1 | 1220 mg/kg
CC(C)(S)[C@@H](N)C(=O)O | 6170 mg/kg
C=CC(Cl)=C(Cl)Cl | 680 mg/kg
CCCOP(=S)(CCl)Sc1ccc(Cl)cc1 (stereo unspecified) | 80 mg/kg
CCN(C)CCC(CC=C(C)C)(C(N)=O)c1cccc2ccccc12 (stereo unspecified) | 71 mg/kg
COP(N)(=S)Oc1ccccc1C(=O)OC(C)C (stereo unspecified) | 50 mg/kg
CCNC(=O)Nc1ncc([N+](=O)[O-])s1 | 2150 mg/kg
CN(C)C(=O)c1sc(-c2cccnc2)nc1-c1ccccc1 | 1040 mg/kg
CC(C)(C)c1cc(Br)c2nc(C(F)(F)F)[nH]c2c1 | 161 mg/kg
c1ccc2cc(Nc3ccc(Nc4ccc5ccccc5c4)cc3)ccc2c1 | 4500 mg/kg
O=P(O)(O)CN(CP(=O)(O)O)CP(=O)(O)O | 17800 mg/kg
N#CC1CCCCC1 | 80 mg/kg
Cc1ccc(N)cc1[N+](=O)[O-] | 6860 mg/kg
NCCCOCCCCOCCCN | 3450 mg/kg
Cc1ccccc1-n1c(C)nc2ccccc2c1=O | 185 mg/kg
O=[N+]([O-])c1cc(I)c(O)c(I)c1 | 170 mg/kg
SCc1cnccn1 | 1700 mg/kg
COC(C)(C)CCCC(C)C(C)O (stereo unspecified) | 4490 mg/kg
O=C(Cc1ccc2c(c1)OCc1ccccc1C2=O)OCC(O)CO (stereo unspecified) | 95 mg/kg
N#C/C(=C1\SCC(c2ccccc2Cl)S1)n1ccnc1 (stereo unspecified) | 652 mg/kg
ClCc1ccc(CCl)cc1 | 1280 mg/kg
CN(C)N=Nc1ccc(C(=O)O)cc1 | 320 mg/kg

Structure (SMILES) | LD50
COC(=O)CCC(Cl)C(C)=O (stereo unspecified) | 2050 mg/kg
C[C@@]12CCCCC[C@@H](Cc3ccc(O)cc31)[C@@H]2N | 243 mg/kg
CC(C)(C)CC(C)(C)S | 52 mg/kg
CCCCOC(=O)C(Cl)(Cl)Oc1ccccc1 | 1500 mg/kg
CCCCN(CCCC)CCC(O)c1cc2c(Cl)cc(Cl)cc2c2cc(C(F)(F)F)ccc12 (stereo unspecified) | 3400 mg/kg
CCOP(=O)(OC=C(Cl)Cl)OCC(Cl)CCl (stereo unspecified) | 66 mg/kg
CC(Oc1ccc2ccccc2c1)C(O)=Nc1ccccc1 (stereo unspecified) | 15000 mg/kg
COC1CC=C2CCN3CCC4=C(CC(=O)OC4)C23C1 (stereo unspecified) | 320 mg/kg
NC(=O)C1(N2CCCCC2)CCN(CCCN2c3ccccc3CCc3ccccc32)CC1 | 1020 mg/kg
CCCC(=O)CCC | 3730 mg/kg
CC/C=C1/OC(=O)c2ccccc21 | 1650 mg/kg
COC(=O)CC1CCCCC1 | 2500 mg/kg
Cc1nc2sccn2c1/C=N/NC(=O)CN(C)C | 1500 mg/kg
CCC(C)(O)CCc1ccccc1 (stereo unspecified) | 2950 mg/kg
CC(C)NCC(O)c1ccccc1Cl (stereo unspecified) | 450 mg/kg and 445 mg/kg
CC(C)CCC(C)Nc1ccc(NC(C)CCC(C)C)cc1 (stereo unspecified) | 750 mg/kg
Cc1cccc(C)c1N(COC(C)C)C(=O)CCl | 975 mg/kg
O=C1NCCCN1Cc1ccc(Cl)c(Cl)c1 | 815 mg/kg
CC(CCl)[N+](=O)[O-] (stereo unspecified) | 197 mg/kg
CCCCCCCCCCCCOCCO | 6550 mg/kg
O=C(C=Cc1ccccc1)OCC=Cc1ccccc1 | 4200 mg/kg
CCOC(=O)C=CC(=O)OCC | 3200 mg/kg
CCN1CCCC1CNS(=O)(=O)c1cc(Cl)c(N)cc1OC (stereo unspecified) | 1500 mg/kg

Structure (SMILES) | LD50
OCCc1ccncc1 | 3500 mg/kg
CCC(CC(C)CC)=NO (stereo unspecified) | 3800 mg/kg
CN(CO)C(=O)Oc1cccc2ccccc12 | 5360 mg/kg
CC(=O)OCC(COC(C)=O)OC(C)=O | 3000 mg/kg
CC(=O)Oc1cccc(Oc2ccc(C(F)(F)F)cc2Cl)c1 | 2500 mg/kg
C=CBr | 500 mg/kg
CO[Si](CCCCCCCCCC[Si](OC)(OC)OC)(OC)OC | 2200 mg/kg
Cc1cc(S(=O)(=O)O)c(N)cc1Cl | 12300 mg/kg
COc1c2occc2cc2ccc(=O)oc12 | 791 mg/kg
CCOC(C1=NCCCN1)c1cccc(F)c1 (stereo unspecified) | 1000 mg/kg
CC(N)C(OCCN(C(C)C)C(C)C)C(=O)c1ccccc1 (stereo unspecified) | 238 mg/kg
CC(=O)C(c1ccccc1)N1CCN(CCOc2ccccc2)CC1 (stereo unspecified) | 800 mg/kg
CCCC(C)OC(N)=O (stereo unspecified) | 421 mg/kg
CCN(CCO)c1cccc(C)c1 | 1370 mg/kg
CCOC1CCCCC1O (stereo unspecified) | 804 mg/kg
Cc1cc(C)cc(OCC2CNC(=O)O2)c1 (stereo unspecified) | 775 mg/kg
O=[N+]([O-])c1ccc2c(N=Nc3ccc4ccccc4c3O)c(O)cc(S(=O)(=O)O)c2c1 | 17600 mg/kg
CCc1ccc(C)cc1 | 4850 mg/kg
COc1c(O)c(Cl)c(Cl)c(Cl)c1Cl | 1690 mg/kg
CCC1(CC)C(=O)N=C(O)NC1=O | 600 mg/kg
CCNc1nc(Cl)nc(NCC)n1 | 971 mg/kg
O=C1C=CC[C@@H]2[C@H]3CCCN4CCC[C@@H](CN12)[C@@H]34 | 196 mg/kg
Cc1ccccc1OCC(COC(O)C(Cl)(Cl)Cl)OC(O)C(Cl)(Cl)Cl (stereo unspecified) | 880 mg/kg

Structure (SMILES) | LD50
Cc1ccc(OC(=O)c2ccccc2)cc1 | 2640 mg/kg
CCC(C)C(C(=O)OCC[N+](C)(CC)CC)c1ccccc1 (stereo unspecified) | 1260 mg/kg
Cc1cc(=O)oc2cc(OP(=O)(OCCCl)OCCCl)ccc12 | 141 mg/kg
CCC(C)c1cc(OC(=O)NC)ccc1C (stereo unspecified) | 35 mg/kg
CC(=O)CCCCCCCC(=O)O | 3100 mg/kg
O=C1c2ccccc2C(=O)C1C(=O)C(c1ccccc1)c1ccccc1 | 1.5 mg/kg
C=CC(C)(O)CCC=C(C)C (stereo unspecified) | 2790 mg/kg
C=COCCOCC1CO1 (stereo unspecified) | 2440 mg/kg
CC=Cc1ccc(OCC)c(O)c1 | 2400 mg/kg
CC[N+](C)(C)C(C)CC(c1ccccc1)c1ccccc1 (stereo unspecified) | 1000 mg/kg
O=C1OC(=O)c2ccc(Cl)c3cccc1c23 | 3460 mg/kg
CC(C)=CCN1CC[C@@]2(C)c3cc(O)ccc3C[C@@H]1[C@@H]2C (racemic) | 1110 mg/kg
CCCC(=O)OC/C=C(\C)CCC=C(C)C | 10700 mg/kg
CC(C)Nc1ccccc1 | 560 mg/kg
[O-][n+]1c2ccccc2nc2ccccc21 | 6600 mg/kg
CC(C)(C)OOC(=O)C(C)(C)C | 4300 mg/kg
COC(C)C=O (stereo unspecified) | 940 mg/kg
Cl[Si](Cl)(Cl)C1CC=CCC1 (stereo unspecified) | 2830 mg/kg
Cc1nc2ccccc2c(=O)n1-c1ccccc1C(=O)O | 1550 mg/kg
NCC1CCC=CO1 (stereo unspecified) | 1000 mg/kg
O=C1C=CC(=O)N1CCCCCCN1C(=O)C=CC1=O | 550 mg/kg
NN=C(N)N | 500 mg/kg
Cc1ncc(CO)c(C(=O)O)c1O | 7500 mg/kg

Structure (SMILES) | LD50
O=C(O)CC1(CO)CCCCC1 | 20 mg/kg
COP(=S)(OC)SCSc1cc(Cl)cc(Cl)c1 | 443 mg/kg
CC(C)CNCC(C)C | 258 mg/kg
O=C(Nc1c(Cl)c(Cl)c(Cl)c2nc(C(F)(F)F)[nH]c12)c1ccccc1 | 100 mg/kg
Cc1cc(N)ccc1S(=O)(=O)NCCO | 8900 mg/kg
COC(=O)c1ccccc1O | 1700 mg/kg
O=C(O)c1cc(/N=N/c2ccc(S(=O)(=O)Nc3ccccn3)cc2)ccc1O | 15600 mg/kg
CNC(=N)NC(=O)Nc1c(C)cccc1C | 187 mg/kg and 184 mg/kg
CCOc1ccc([N+](=O)[O-])cc1CNCCBr | 25 mg/kg
O=CCC1CC2CC1C1CCCC21 (stereo unspecified) | 500 mg/kg
CCCCCCCCCCCCCO | 17200 mg/kg
CCCCCCCCCCCC[N+](CCO)(CCO)Cc1ccccc1 | 750 mg/kg
O=C(CCc1ccccc1)OC1=C(OC(=O)CCc2ccccc2)C(=O)OC1=O | 10000 mg/kg
CCOC(=O)C1=C(C)NC(C)=C(C(=O)OC)C1c1cccc(Cl)c1Cl (stereo unspecified) | 1050 mg/kg
C=CCSC(C)C1(CC=C)C(=O)N=C(O)NC1=O (stereo unspecified) | 346 mg/kg
CCc1c(C)nc2ccc(Cl)cn2c1=O | 1100 mg/kg
CNCCc1ccccn1 | 3030 mg/kg and 6110 mg/kg
O=C(NCCN1CCOCC1)c1ccc(Cl)cc1 | 707 mg/kg
O=c1cc[nH]c(=O)o1 | 850 mg/kg
COc1ccc([N+](=O)[O-])cc1CNCCCl | 28 mg/kg
C#CC(OC(=O)C1C(C=C(C)C)C1(C)C)/C(C)=C/CC (stereo unspecified) | 1680 mg/kg
CCOC(C)=O | 5620 mg/kg
Clc1sc(Cl)c(Cl)c1Cl | 70 mg/kg

Structure (SMILES) | LD50
COc1ccc2c3c1O[C@H]1[C@@H](O)C=C[C@H]4[C@@H](C2)[N@@+](C)([O-])CC[C@@]341 | 1600 mg/kg
CCOP(=O)(OCC)Oc1nc(Cl)c(Cl)cc1Cl | 135 mg/kg
CNC(=O)Oc1ccc(C)c2c1OC(C)(C)C2 | 12 mg/kg
Cc1cccc(C#N)c1 | 3000 mg/kg
O=C(CCl)c1ccc(Cl)cc1Cl | 300 mg/kg
NCCNCCNCc1ccccc1O | 2300 mg/kg
COc1ccc(C(=O)CCC(=O)O)c2c(C)c(C)oc12 | 2180 mg/kg
Cc1ncc(CO)c(CO)c1O | 4000 mg/kg
NNc1nnc(NN)c2ccccc12 | 350 mg/kg and 400 mg/kg
O=C1C(Cl)=C(Cl)C(=O)C1=C(Cl)Cl | 2300 mg/kg
O=NN1CCCCCCC1 | 283 mg/kg
CCCSc1ccc2[nH]c(NC(=O)OC)nc2c1 | 2400 mg/kg
CCCN(CCC)C(=O)C(CCC(=O)O)NC(=O)c1ccccc1 (stereo unspecified) | 20000 mg/kg and 8200 mg/kg
C/C=C\COCN(C(=O)CCl)c1c(CC)cccc1CC | 1630 mg/kg
COc1c(Cl)cc(Cl)c(Cl)c1C(=O)O | 300 mg/kg
C[C@@H]1CCC[C@H](C)N1CCCC(O)(c1ccccc1)c1ccccn1 (stereo partly specified) | 251 mg/kg
CN1C(C(=O)Nc2ccccn2)=C(O)c2ccccc2S1(=O)=O | 216 mg/kg
CC1(C)COS(=O)(=O)OC1 | 10 mg/kg
